ChEMBL document CHEMBL1121833, “Structure--sweetness relationship of L-aspartyl dipeptide analogues. A receptor site topology” (J Med Chem, 1981)
Peptide text beside a SMILES is read from it.

Assay: Sweet potency as logarithm of sweet potency (log SP) relative to sucrose; Sweet
Format: functional

| Structure (SMILES) | Log SP |
| --- | --- |
| N[C@H](CC(=O)O)C(=O)N[C@@H](CO)Cc1ccc(O)cc1 | Sweet |
| N[C@H](CC(=O)O)C(=O)NCCc1ccc(O)cc1 | Sweet |
| CCCCCCNC(=O)[C@H](N)CC(=O)O | Sweet |
| C[C@H](NC(=O)[C@H](N)CC(=O)O)C(O)c1ccccc1 (some centres not stated) | Sweet |
| CCOC(=O)[C@H](NC(=O)[C@H](N)CC(=O)O)C(=O)OC(C)(C)C | Sweet |
| CCCC[C@H](CC)NC(=O)[C@H](N)CC(=O)O | Sweet |
| N[C@H](CC(=O)O)C(=O)NCCc1ccco1 | Sweet |
| CCCCCCCNC(=O)[C@H](N)CC(=O)O | Sweet |
| C[C@@H](Cc1ccc(O)cc1)NC(=O)[C@H](N)CC(=O)O | Sweet |
| N[C@H](CC(=O)O)C(=O)N[C@@H](CO)Cc1ccccc1 | Sweet |
| N[C@H](CC(=O)O)C(=O)NCCOc1ccccc1 | Sweet |
| CCC(C)C[C@H](C)NC(=O)[C@H](N)CC(=O)O (some centres not stated) | Sweet |

Assay: Sweet potency as logarithm of sweet potency (log SP) relative to sucrose; Bitter
Format: functional

| Structure (SMILES) | Log SP |
| --- | --- |
| C[C@@H](Cc1cc2ccccc2[nH]1)NC(=O)[C@H](N)CC(=O)O | Bitter |
| C[C@@H](CC1CCCCC1)N(C)C(=O)[C@H](N)CC(=O)O | Bitter |
| C[C@@H](Cc1ccc(NS(C)(=O)=O)cc1)NC(=O)[C@H](N)CC(=O)O | Bitter |
| C[C@@H](Cc1ccc2c(c1)OCO2)NC(=O)[C@H](N)CC(=O)O | Bitter |
| CC(CNC(=O)[C@H](N)CC(=O)O)c1ccccc1 (some centres not stated) | Bitter |
| C[C@H](CC1CCCCC1)N(C)C(=O)[C@H](N)CC(=O)O | Bitter |
| C[C@H](Cc1ccccc1)N(C)C(=O)[C@H](N)CC(=O)O | Bitter |
| COC(=O)[C@@H](CCCCN)NC(=O)[C@H](N)CC(=O)O | Bitter |
| CCC[C@H](CC)NC(=O)[C@H](N)CC(=O)O | Bitter |
| C[C@@H](Cc1ccccc1)N(C)C(=O)[C@H](N)CC(=O)O | Bitter |
| CC(C)C[C@H](C)NC(=O)[C@H](N)CC(=O)O | Bitter |

Assay: Sweet potency as logarithm of sweet potency (log SP) relative to sucrose; No sweet
Format: functional

| Structure (SMILES) | Log SP |
| --- | --- |
| COC(=O)C(NC(=O)[C@@H](N)CC(=O)O)C(=O)OC1CC(C)CCC1C(C)C (some centres not stated) | Not sweet |
| COC(=O)[C@@H](CC(C)C)NC(=O)[C@H](N)CC(=O)O | Not sweet |
| CC[C@@H](COC(=O)C1CCCCC1)NC(=O)[C@H](N)CC(=O)O | Not sweet |
| CCC(C)[C@@H](COC(C)=O)NC(=O)[C@H](N)CC(=O)O (some centres not stated) | Not sweet |
| CC(=O)OC[C@H](CC(C)C)NC(=O)[C@H](N)CC(=O)O | Not sweet |
| COC(=O)C(CNC(=O)[C@H](N)CC(=O)O)C(=O)OC1CCCC1 (some centres not stated) | Not sweet |
| C[C@@H](COC(=O)C1CCCC(C)(C)C1)NC(=O)[C@H](N)CC(=O)O (some centres not stated) | Not sweet |
| CC(=O)OC[C@H](Cc1ccccc1)NC(=O)[C@H](N)CC(=O)O | Not sweet |
| CCOC(=O)C[C@H](Cc1ccccc1)NC(=O)[C@H](N)CC(=O)O | Not sweet |
| COC(=O)C(CNC(=O)[C@H](N)CC(=O)O)C(=O)OC | Not sweet |
| CCCCOC(=O)CCNC(=O)[C@H](N)CC(=O)O | Not sweet |
| CC[C@@H](CC(=O)OC(C)C)NC(=O)[C@H](N)CC(=O)O | Not sweet |
| C[C@@H](COC(=O)C1CCCCC1)NC(=O)[C@H](N)CC(=O)O | Not sweet |
| COC(=O)[C@@H](CC(=O)OC1CCCCC1)NC(=O)[C@H](N)CC(=O)O | Not sweet |
| CC[C@H](C)[C@H](NC(=O)[C@@H](N)CC(=O)O)C(=O)OC (H-Asp-Ile-OMe) | Not sweet |
| CC(C)C[C@H](NC(=O)[C@H](N)CC(=O)O)C(=O)OC(C)C | Not sweet |
| CCCCC(=O)OC[C@H](CC)NC(=O)[C@H](N)CC(=O)O | Not sweet |
| COC(=O)C(CNC(=O)[C@H](N)CC(=O)O)C(=O)OC1CCCCC1 (some centres not stated) | Not sweet |
| COC(=O)C(CNC(=O)[C@H](N)CC(=O)O)Cc1ccccc1 (some centres not stated) | Not sweet |
| COC(=O)[C@@H](COC(=O)c1ccccc1)NC(=O)[C@H](N)CC(=O)O | Not sweet |

Assay: Sweet potency as logarithm of sweet potency (log SP) relative to sucrose; Tasteless
Format: functional

| Structure (SMILES) | Log SP |
| --- | --- |
| N[C@H](CC(=O)O)C(=O)NCCc1ccccc1 | Tasteless |
| CC(C)CCCNC(=O)[C@H](N)CC(=O)O | Tasteless |
| CCC[C@H](C)NC(=O)[C@H](N)CC(=O)O | Tasteless |

Assay: Sweet potency as logarithm of sweet potency (log SP) relative to sucrose
Format: functional

| Structure (SMILES) | Log SP |
| --- | --- |
| CCOC(=O)[C@H](NC(=O)[C@H](N)CC(=O)O)C(=O)OC(C)(C)C | 2.32 |
